Where a name gives a salt, the structure may show the parent alone.

A word on the half-life: it is how long it takes for the measured level to halve.

One series relates to dopamine biosynthesis. Briefly: NSD-1015-induced DOPA accumulation in striatum of reserpine-treated rats. As to conditions: p.o. Type of series: in vivo, rat.
Series [1] can be described thus: Rat dual-probe brain microdialysis study. In kind it is in vivo. The settings on record: rat MD study, 1 mg/kg p.o.
In series [2] the test system is dopamine turnover ((HVA+DOPAC)/DA). The series can be described thus: Dopamine turnover index in rat striatum. Type of series: in vivo. The settings on record: p.o.
The conditions of series [3]: human plasma; cited from earlier work.
The subject of series [4] is serotonin turnover (5-HIAA/5-HT). The series can be described thus: Serotonin turnover index in rat frontal cortex. In kind it is in vivo. As to conditions: p.o.
A further series in a line: in vivo. As to conditions: male, Wistar, rat, plasma, other: p.o. and i.v.

In the case of `CN(C)C(=O)N[C@H]1CC[C@H](CCN2CCN(c3cccc(Cl)c3Cl)CC2)CC1` [CAR, trans-N-[4-[2-[4-(2,3-dichlorophenyl)piperazin-1-yl]ethyl]cyclohexyl]-N’,N’-dimethylureahydrochloride], the “effect on NSD-1015-induced accumulation of DOPA” value in the series on dopamine biosynthesis is “inhibited the NSD-1015-induced accumulation of DOPA”. Further, the “free extracellular level as percent of total brain exposure” value in series [1] is 1–2%. Further, in series [1] (listed as cariprazine, 1 mg/kg), the “extracellular levels in the brain” value is 2.6 to 9.9 nM. Further, in series [2], the “effect on dopamine turnover” value is given as “dose-dependently enhanced dopamine turnover”. Moreover, the half-life in humans in series [3] was 24 to 72 h. Moreover, the “effect on serotonin turnover” value in series [4] was “slightly reduced serotonin turnover”. In “in vivo”, this molecule showed a half-life of 2 to 3 h.
